Assay results: patent US20120245137A1 (Zalicus Pharmaceuticals Ltd., priority 2009, published 2012)

Columns and labels:
Type in all cases: cell-based
[1] = target: N-type calcium channel subunits (α1B, α2δ, and β3a) (Homo sapiens, UniProt Q00975); test: Block of Cav2.2 channel, whole cell voltage clamp, manual and PatchXpress; conditions: Table 5; table follows Assay Example 3 (whole cell voltage clamp / PatchXpress); assay not given
Procedure, shortened: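 Percent block taken as current amplitude ratio with versus without compound, applied in rising doses; IC50 fitted where one cell received multiple doses. Protocol: 50 ms pulses to +20 mV at 0.067 Hz from […] or −90 mV holding; P/n leak subtraction, no junction-potential correction; manual and PatchXpress recordings.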

[2] = target: human α1H T-type channels (Homo sapiens, UniProt O95180); test: T-type calcium channel block, whole cell patch clamp, α1H; conditions: HEK cells stably expressing human α1H; mainly non-inactivated protocol; values above 10,000 nM represented as 10000
Procedure, shortened: (§1)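 Whole-cell T-type currents, stably transfected HEK 293 (human α1G/α1H), passage 4-20. Cmpd in external soln, 0.1-0.01% DMSO, local gravity perfusion after ~10 min rest. Two voltage protocols: non-inactivating (resting block), inactivation (voltage-dependent block).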

[3] = target: human α1G T-type channels (Homo sapiens, UniProt O43497); test: T-type calcium channel block, whole cell patch clamp, α1G; conditions: HEK cells stably expressing human α1G; mainly non-inactivated protocol; values above 10,000 nM represented as 10000
Procedure, shortened: as §1

Sequence of N-type calcium channel subunits (α1B, α2δ, and β3a) (Q00975 whole entry): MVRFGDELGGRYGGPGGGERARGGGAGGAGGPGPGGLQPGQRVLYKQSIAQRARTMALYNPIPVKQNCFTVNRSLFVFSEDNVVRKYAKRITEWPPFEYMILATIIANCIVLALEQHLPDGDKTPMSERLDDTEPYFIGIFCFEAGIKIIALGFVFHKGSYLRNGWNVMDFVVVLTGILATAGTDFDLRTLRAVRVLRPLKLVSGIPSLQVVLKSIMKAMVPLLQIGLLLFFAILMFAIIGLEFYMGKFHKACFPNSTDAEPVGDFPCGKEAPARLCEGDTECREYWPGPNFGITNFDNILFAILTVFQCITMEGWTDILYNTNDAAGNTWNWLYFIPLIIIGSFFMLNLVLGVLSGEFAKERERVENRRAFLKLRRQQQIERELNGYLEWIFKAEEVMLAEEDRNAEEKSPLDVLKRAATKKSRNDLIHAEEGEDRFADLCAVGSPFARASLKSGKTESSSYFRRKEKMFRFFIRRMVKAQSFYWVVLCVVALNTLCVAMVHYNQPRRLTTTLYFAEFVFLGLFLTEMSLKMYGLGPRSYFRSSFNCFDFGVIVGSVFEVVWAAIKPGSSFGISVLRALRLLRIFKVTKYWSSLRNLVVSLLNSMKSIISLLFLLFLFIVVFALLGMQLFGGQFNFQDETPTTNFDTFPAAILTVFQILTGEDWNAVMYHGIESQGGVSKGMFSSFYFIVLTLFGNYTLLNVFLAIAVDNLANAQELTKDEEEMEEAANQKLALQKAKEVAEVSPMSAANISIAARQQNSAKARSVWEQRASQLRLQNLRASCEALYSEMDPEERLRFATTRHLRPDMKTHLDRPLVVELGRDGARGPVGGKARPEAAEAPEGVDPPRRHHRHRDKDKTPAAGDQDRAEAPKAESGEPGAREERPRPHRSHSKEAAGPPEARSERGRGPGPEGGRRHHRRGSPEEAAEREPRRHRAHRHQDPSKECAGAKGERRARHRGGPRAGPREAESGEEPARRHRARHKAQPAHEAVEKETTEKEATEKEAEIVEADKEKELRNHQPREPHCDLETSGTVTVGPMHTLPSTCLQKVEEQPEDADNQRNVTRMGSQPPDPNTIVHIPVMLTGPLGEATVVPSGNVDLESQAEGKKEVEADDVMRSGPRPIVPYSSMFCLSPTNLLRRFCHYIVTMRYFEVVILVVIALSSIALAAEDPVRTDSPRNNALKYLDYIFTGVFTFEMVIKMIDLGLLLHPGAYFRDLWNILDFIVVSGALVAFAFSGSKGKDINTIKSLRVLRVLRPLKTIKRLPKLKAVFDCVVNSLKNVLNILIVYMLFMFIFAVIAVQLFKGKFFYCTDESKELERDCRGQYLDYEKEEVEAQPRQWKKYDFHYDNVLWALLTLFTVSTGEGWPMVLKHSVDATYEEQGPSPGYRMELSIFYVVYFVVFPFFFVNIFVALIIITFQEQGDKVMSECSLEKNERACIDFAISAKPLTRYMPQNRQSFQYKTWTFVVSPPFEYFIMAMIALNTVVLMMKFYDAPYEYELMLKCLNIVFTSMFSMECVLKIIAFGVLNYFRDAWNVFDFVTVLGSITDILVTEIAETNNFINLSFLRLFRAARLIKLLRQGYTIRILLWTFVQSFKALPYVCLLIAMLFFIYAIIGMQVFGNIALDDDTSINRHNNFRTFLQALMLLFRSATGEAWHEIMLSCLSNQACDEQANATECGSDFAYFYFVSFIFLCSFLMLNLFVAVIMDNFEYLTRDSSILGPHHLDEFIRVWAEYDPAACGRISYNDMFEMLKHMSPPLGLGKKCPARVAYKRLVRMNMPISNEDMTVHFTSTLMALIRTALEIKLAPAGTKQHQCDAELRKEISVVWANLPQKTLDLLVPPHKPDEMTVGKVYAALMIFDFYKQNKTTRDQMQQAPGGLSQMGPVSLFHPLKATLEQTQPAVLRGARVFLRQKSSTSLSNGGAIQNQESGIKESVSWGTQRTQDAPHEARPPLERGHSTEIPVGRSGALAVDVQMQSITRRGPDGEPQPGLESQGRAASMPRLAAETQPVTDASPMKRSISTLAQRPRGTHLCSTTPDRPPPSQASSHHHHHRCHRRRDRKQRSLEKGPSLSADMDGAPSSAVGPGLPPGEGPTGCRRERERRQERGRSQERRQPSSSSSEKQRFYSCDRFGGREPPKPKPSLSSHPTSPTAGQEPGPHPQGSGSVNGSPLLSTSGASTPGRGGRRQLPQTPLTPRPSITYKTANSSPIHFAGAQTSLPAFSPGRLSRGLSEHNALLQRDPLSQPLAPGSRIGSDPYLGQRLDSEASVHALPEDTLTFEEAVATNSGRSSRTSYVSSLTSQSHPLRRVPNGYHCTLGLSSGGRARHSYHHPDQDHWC
Sequence of N-type calcium channel subunits (α1B, α2δ, and β3a) (P54289 25-1103 partner): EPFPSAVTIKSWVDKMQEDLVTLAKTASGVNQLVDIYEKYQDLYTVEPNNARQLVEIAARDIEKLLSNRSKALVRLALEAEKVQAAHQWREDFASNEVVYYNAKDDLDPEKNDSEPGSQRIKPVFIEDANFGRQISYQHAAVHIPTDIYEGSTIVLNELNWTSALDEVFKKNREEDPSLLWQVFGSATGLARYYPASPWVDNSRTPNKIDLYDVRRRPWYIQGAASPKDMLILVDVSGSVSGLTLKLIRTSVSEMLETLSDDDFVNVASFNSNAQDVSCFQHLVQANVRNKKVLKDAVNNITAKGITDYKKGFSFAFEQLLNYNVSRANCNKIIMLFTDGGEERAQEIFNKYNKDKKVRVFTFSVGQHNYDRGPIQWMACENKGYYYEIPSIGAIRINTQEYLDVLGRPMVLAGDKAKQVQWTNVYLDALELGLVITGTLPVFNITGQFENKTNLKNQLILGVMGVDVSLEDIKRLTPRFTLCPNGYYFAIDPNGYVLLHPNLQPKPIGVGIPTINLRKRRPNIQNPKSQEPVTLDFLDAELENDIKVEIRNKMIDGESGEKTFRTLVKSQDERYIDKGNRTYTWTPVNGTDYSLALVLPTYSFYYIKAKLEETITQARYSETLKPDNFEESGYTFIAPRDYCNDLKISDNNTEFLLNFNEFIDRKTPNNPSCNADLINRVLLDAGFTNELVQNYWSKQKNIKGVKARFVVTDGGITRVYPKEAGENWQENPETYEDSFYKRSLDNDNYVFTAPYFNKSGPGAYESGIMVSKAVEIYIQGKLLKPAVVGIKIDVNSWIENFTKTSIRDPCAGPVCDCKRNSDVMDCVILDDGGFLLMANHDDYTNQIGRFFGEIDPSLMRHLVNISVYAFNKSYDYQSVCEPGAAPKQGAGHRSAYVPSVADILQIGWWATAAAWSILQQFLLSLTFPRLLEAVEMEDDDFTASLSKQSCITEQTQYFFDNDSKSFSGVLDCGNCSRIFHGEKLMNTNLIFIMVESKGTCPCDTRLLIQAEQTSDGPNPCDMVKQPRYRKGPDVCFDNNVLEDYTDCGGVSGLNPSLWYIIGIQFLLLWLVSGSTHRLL
Sequence of N-type calcium channel subunits (α1B, α2δ, and β3a) (P54284 whole entry partner): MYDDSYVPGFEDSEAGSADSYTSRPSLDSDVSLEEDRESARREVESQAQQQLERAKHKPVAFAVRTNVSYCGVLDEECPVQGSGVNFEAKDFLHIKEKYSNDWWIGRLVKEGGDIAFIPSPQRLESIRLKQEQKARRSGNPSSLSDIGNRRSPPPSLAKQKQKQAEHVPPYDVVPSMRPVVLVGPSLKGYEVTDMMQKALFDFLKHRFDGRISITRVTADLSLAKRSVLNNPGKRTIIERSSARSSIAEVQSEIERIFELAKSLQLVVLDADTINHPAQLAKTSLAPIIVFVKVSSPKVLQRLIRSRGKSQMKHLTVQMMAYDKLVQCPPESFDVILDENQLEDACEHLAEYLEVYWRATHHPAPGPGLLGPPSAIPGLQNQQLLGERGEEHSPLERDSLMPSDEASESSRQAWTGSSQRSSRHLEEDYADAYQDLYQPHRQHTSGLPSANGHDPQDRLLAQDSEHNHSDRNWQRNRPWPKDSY

IC50 [1]	IC50 [2]	IC50 [3]	Molecule
590 nM	510 nM	1030 nM	O=C(CN[C@H]1CC[C@H](S(=O)(=O)c2cccc(C(F)(F)F)c2)CC1)NC1CCCCC1 [Compound 76, N-cyclohexyl-2-((1R,4R)-4-(3-(trifluoromethyl)phenylsulfonyl)cyclohexylamino)acetamide]
160 nM	> 10000 nM	> 10000 nM	O=C(NC[C@H]1C[C@H](S(=O)(=O)c2cccc(C(F)(F)F)c2)C1)c1ccc(Cl)c(Cl)c1 [Compound 369, 3,4-dichloro-N-(((1R,3R)-3-(3-(trifluoromethyl)phenylsulfonyl)cyclobutyl)methyl)benzamide]
310 nM	650 nM	2870 nM	O=C(N[C@H]1CC[C@@](F)(S(=O)(=O)c2cccc(C(F)(F)F)c2)CC1)c1cc(C(F)(F)F)ccn1 [Compound 84, N-((1S,4S)-4-fluoro-4-(3-(trifluoromethyl)phenylsulfonyl)cyclohexyl)-4-(trifluoromethyl)picolinamide]
600 nM	2530 nM	5560 nM	O=C(N[C@H]1CC[C@H](S(=O)(=O)c2cccc(C(F)(F)F)c2)CC1)c1cncc(C(F)(F)F)c1 [Compound 190, 5-(trifluoromethyl)-N-((1R,4R)-4-(3-(trifluoromethyl)phenylsulfonyl)cyclohexyl)nicotinamide]
510 nM	540 nM	350 nM	3-chloro-4-fluoro-N-((1R,4R)4-(3- (trifluoromethyl)phenylsulfonyl) cyclohexyl)benzamide [Compound 124]
1980 nM	> 10000 nM	> 10000 nM	COc1cc(C(=O)NC2(C)CCC(S(=O)(=O)c3cccc(C(F)(F)F)c3)CC2)cc(Cl)n1 (stereo not drawn) [Compound 313, 2-chloro-6-methoxy-N-(1-methyl-4-(3-(trifluoromethyl)phenylsulfonyl)cyclohexyl) isonicotinamide]
1400 nM	210 nM	520 nM	CS(=O)(=O)c1cc(C(F)(F)F)cnc1C(=O)NC[C@H]1C[C@H](S(=O)(=O)c2cccc(C(F)(F)F)c2)C1 [Compound 364, 3-(methylsulfonyl)-5-(trifluoromethyl)-N-(((1R,3R)-3-(3-(trifluoromethyl)phenylsulfonyl)cyclobutyl)methyl)picolinamide]
200 nM	> 10000 nM	> 10000 nM	O=C(NC[C@H]1C[C@H](S(=O)(=O)c2cccc(C(F)(F)F)c2)C1)c1ccc(F)c(Cl)c1 [Compound 357, 3-chloro-4-fluoro-N-(((1R,3R)-3-(3-(trifluorornethyl)phenylsulfonyl)cyclobutyl)methyl)benzamide]
3210 nM	1980 nM	5020 nM	O=C(CN[C@H]1C[C@H](CS(=O)(=O)c2cccc(C(F)(F)F)c2)C1)NC1CCCCC1 [Compound 353, N-cyclohexyl-2-((1R,3R)-3-((3-(trifluoromethyl)phenylsulfonyl)methyl)cyclobutylamino)acetamide]
850 nM	240 nM	880 nM	Cc1noc(C)c1S(=O)(=O)N[C@H]1CC[C@@](F)(S(=O)(=O)c2cccc(C(F)(F)F)c2)CC1 [Compound 298, N-((1S,4S)-4-fluoro-4-(3-(trifluoromethyl)phenylsulfonyl)cyclohexyl)-3,5-dimethylisoxazole-4-sulfonamide]
370 nM	260 nM	740 nM	CS(=O)(=O)c1cc(C(F)(F)F)ccc1C(=O)N[C@H]1CC[C@@](F)(S(=O)(=O)c2cccc(OC(F)(F)F)c2)CC1 [Compound 254]
4950 nM	1210 nM	1530 nM	Cc1cc(NC(=O)CN[C@H]2CC[C@H](S(=O)(=O)c3cccc(C(F)(F)F)c3)CC2)on1 [Compound 74, N-(3-methylisoxazol-5-yl)-2-((1R,4R)-4-(3-(trifluoromethyl)phenylsulfonyl)cyclohexylamino)acetamide]
640 nM	3260 nM	> 10000 nM	O=C(N[C@H]1CC[C@@](F)(S(=O)(=O)c2cccc(C(F)(F)F)c2)CC1)[C@H]1CC[C@@H](c2ccccc2)N1 [Compound 288, (2R,5S)-N-((1S,4S)-4-fluoro-4-(3-(trifluoromethyl)phenylsulfonyl)cyclohexyl)-5-phenylpyrrolidine-2-carboxamide]
1940 nM	> 10000 nM	2180 nM	Cn1cc(C(=O)N[C@H]2CC[C@H](CS(=O)(=O)c3cccc(C(F)(F)F)c3)CC2)c(C(F)(F)F)n1 [Compound 106, 1-methyl-3-(trifluoromethyl)-N-((1R,4R)-4-((3-(trifluoromethyl)phenylsulfonyl)methyl)cyclohexyl)-1H-pyrazole-4-carboxamide]
320 nM	1330 nM	2400 nM	O=C(N[C@H]1CC[C@@](F)(S(=O)(=O)c2cc(F)cc(C(F)(F)F)c2)CC1)c1ccc(F)c(C(F)(F)F)c1 [Compound 325, 4-fluoro-N-((1S,4S)-4-fluoro-4-(3-fluoro-5-(trifluoromethyl)phenylsulfonyl)cyclohexyl)-3-(trifluoromethyl)benzamide]
8990 nM	> 10000 nM	> 10000 nM	O=C(N[C@H]1CC[C@H](S(=O)(=O)c2cccc(C(F)(F)F)c2)CC1)C1(C(F)(F)F)CCC1 [Compound 66, 1-(trifluoromethyl)-N-((1R,4R)-4-(3-(trifluoromethyl)phenylsulfonyl)cyclohexyl)cyclobutanecarboxamide]
480 nM	960 nM	2850 nM	O=C(N[C@H]1CC[C@](F)(S(=O)(=O)c2cccc(C(F)(F)F)c2)CC1)c1ccc(F)c(C(F)(F)F)c1 [Compound 83, 4-fluoro-N-((1R,4R)-4-fluoro-4-(3-(trifluoromethyl)phenylsulfonyl)cyclohexyl)-3-(trifluoromethyl)benzamide]
320 nM	330 nM	430 nM	3-chloro-5-fluoro-N-((1S,4S)-4-((3- (trifluoromethyl)phenylsulfonyl) methyl)cyclohexyl)benzamide [Compound 137]
4230 nM	850 nM	2830 nM	Cn1cnc(S(=O)(=O)N[C@H]2CC[C@@](F)(S(=O)(=O)c3cccc(C(F)(F)F)c3)CC2)c1 [Compound 296, N-((1S,4S)-4-fluoro-4-(3-(trifluoromethyl)phenylsulfonyl)cyclohexyl)-1-methyl-1H-imidazole-4-sulfonamide]
250 nM	720 nM	760 nM	CC(C)(C)NC(=O)CN[C@H]1CC[C@@](F)(S(=O)(=O)c2cccc(C(F)(F)F)c2)CC1 [Compound 27, N-tert-butyl-2-((1S,4S)-4-fluoro-4-(3-(trifluoromethyl)phenylsulfonyl)cyclohexylamino)acetamide]
420 nM	2550 nM	3520 nM	Cn1nc(C(F)(F)F)cc1C(=O)NCC1(C)CCC(S(=O)(=O)c2cccc(C(F)(F)F)c2)CC1 (stereo not drawn) [Compound 206, 1-methyl-N-((1-methyl-4-(3-(trifluoromethyl)phenylsulfonyl)cyclohexyl)methyl)-3-(trifluoromethyl)-1H-pyrazole-5-carboxamide]
470 nM	5660 nM	> 10000 nM	O=C(N[C@H]1CC[C@@H](S(=O)(=O)c2cccc(C(F)(F)F)c2)CC1)c1ccc(OCC(F)(F)F)nc1 [Compound 197, 6-(2,2,2-trifluoroethoxy)-N-((1S,4S)-4-(3-(trifluoromethyl)phenylsulfonyl)cyclohexyl)nicotinamide]
1410 nM	> 10000 nM	> 10000 nM	Cn1nc(C(F)(F)F)cc1C(=O)N[C@H]1C[C@H](CS(=O)(=O)c2cccc(C(F)(F)F)c2)C1 [Compound 350, 1-methyl-3-(trifluoromethyl)-N-((1R,3R)-3-((3-(trifluoromethyl)phenylsulfonyl)methyl)cyclobutyl)-1H-pyrazole-5-carboxamide]
1310 nM	3620 nM	9280 nM	O=C(CNC[C@H]1CC[C@@H](S(=O)(=O)c2cccc(C(F)(F)F)c2)CC1)NCC(F)(F)F [Compound 37, N-(2,2,2-trifluoroethyl)-2-(((1S,4S)-4-(3-(trifluoromethyl)phenylsulfonyl)cyclohexyl)methylamino)acetamide]
250 nM	610 nM	820 nM	O=C(NC[C@H]1C[C@H](S(=O)(=O)c2cccc(C(F)(F)F)c2)C1)c1ccc(OC(F)(F)F)cc1 [Compound 373, 4-(trifluoromethoxy)-N-(((1R,3R)-3-(3-(trifluoromethyl)phenylsulfonyl)cyclobutyl)methyl)benzamide]
650 nM	> 10000 nM	> 10000 nM	CN(C(=O)CN[C@H]1CC[C@H](CS(=O)(=O)c2cccc(C(F)(F)F)c2)CC1)C(C)(C)C [Compound 115, N-tert-butyl-N-methyl-2-((1R,4R)-4-((3-(trifluoromethyl)phenylsulfonyl)methyl)cyclohexylamino)acetamide]
240 nM	2100 nM	6440 nM	COc1cc(F)cc(C(=O)N[C@H]2CC[C@@](F)(S(=O)(=O)c3cccc(C(F)(F)F)c3)CC2)c1 [Compound 87, 3-fluoro-N-((1S,4S)-4-fluoro-4-(3-(trifluoromethyl)phenylsulfonyl)cyclohexyl)-5-methoxybenzamide]
